# Measurements as given in publication PMC2362650, “Phase I and pharmacokinetic study of the topoisomerase II catalytic inhibitor fostriecin” (British Journal of Cancer, 1999).
# Assay: Phase I study: toxicity graded with NCI common toxicity criteria in patients
# Type: in vivo, human
# Source text: Fostriecin (CI-920) is a topoisomerase (topo) II catalytic activity inhibitor (Boritzki et al, 1988) (Figure 1). This novel class of topo II-targeting drugs is considered of potential value for treatment of patients with tumours resistant to classic topo II poisons, including anthracyclines and podophyllotoxins (Cummings and Smyth, 1993). The nuclear enzyme topo II is essential for the regulation of DNA conformation (reviewed in Osheroff et al, 1991). Central in its action is the formation of a complex with DNA. Stabilization of this complex by topo II poisons induces DNA damage and cell death (Froelich-Ammon and Osheroff, 1995). Decreased complex formation due to decreased topo II levels is considered to be an important mechanism of tumour-resistance to topo II poisons (Beck and Danks, 1991). The topo II catalytic inhibitor fostriecin is expected to have increased activity against tumour cells with low topo II levels and this was confirmed in in vitro studies (De Jong et al, 1991). […] Because of increased toxi- city of fostriecin in dogs compared to mice, a dose below one-third of the one-tenth mouse equivalent LD10, 2 mg m-2 day-1, was chosen as starting dose in humans (Clinical Brochure Fostriecin, 1991). […] We also performed an analysis of the human pharmacokinetics of fostriecin and ex vivo experiments to investigate if the plasma drug concentrations achieved were sufficient to inhibit a tenipo- side-resistant tumour cell line. The maximum tolerated dose (MTD) of fostriecin could not be established because drug supply was stopped prematurely. However, results of this study may provide a basis for continued clinical development of this agent. PATIENTS AND METHODS Patient selection, drug administration and evaluation Patient eligibility criteria were: histologically confirmed diagnosis of a solid tumour, no longer amenable to established forms of treatment; age 18-75 years; Eastern Cooperative Oncology Group (ECOG) performance status 2; life expectancy 12 weeks; no Phase I and pharmacokinetic study of the topoisomerase II catalytic inhibitor fostriecin RS de Jong1, NH Mulder1, DRA Uges2, DTh Sleijfer1, FJP Hoppener4, HJM Groen3, PHB Willemse1, WTA van der Graaf1 and EGE de Vries1 Departments of 1Medical Oncology, 2Pharmacy and Toxicology, and 3Pulmonary Diseases, University Hospital Groningen, The Netherlands; 4EORTC New Drug Development Office, Amsterdam, The Netherlands Summary We conducted a phase I and pharmacokinetic study of the topoisomerase II catalytic inhibitor fostriecin. Fostriecin was administered intravenously over 60 min on days 1-5 at 4-week intervals. Dose was escalated from 2 mg m-2 day-1 to 20 mg m-2 day-1 in 20 patients. Drug pharmacokinetics was analysed with high performance liquid chromatography with UV-detection. Plasma collected during drug administration was tested in vitro for growth inhibition of a teniposide-resistant small-cell lung cancer (SCLC) cell line. The predominant toxicities were elevated liver transaminases (maximum common toxicity criteria (CTC) grade 4) and serum creatinine (maximum CTC grade 2). […] Duration of elevated alanine-amino transferase (ALT) was dose-limiting in one patient at 20 mg m-2. Other frequent toxicities were grade 1-2 nausea/vomiting, fever and mild fatigue. […] A metabolite, most probably dephosphorylated fostriecin, was detected in plasma and urine. […] However, further escalation seems possible and is warranted to achieve potentially effective drug levels. Fostriecin has a short plasma half-life and longer duration of infusion should be considered. […]
# [1] = 12.2 mg m-2, 3 patients/8 courses
# [2] = 20 mg m-2, 2 patients/4 courses
# [3] = one patient at 20 mg m-2 after course 2
compound,measurement,setting,value
C[C@@](O)(/C=C/[C@H]1CC=CC(=O)O1)[C@@H](C[C@@H](O)\C=C/C=C\C=C\CO)OP(=O)(O)O [fostriecin],"CTC-grade 1 ALP: courses causing toxicity, all full-dose courses",[1],3
same,CTC-grade 1 ALP: patients developing toxicity in first course,[1],1
same,"CTC-grade 1 ALT: courses causing toxicity, all full-dose courses",[1],0
same,CTC-grade 1 ALT: patients developing toxicity in first course,[1],0
same,"CTC-grade 1 AST: courses causing toxicity, all full-dose courses",[1],0
same,CTC-grade 1 AST: patients developing toxicity in first course,[1],0
same,"CTC-grade 1 GGT: courses causing toxicity, all full-dose courses",[1],2
same,CTC-grade 1 GGT: patients developing toxicity in first course,[1],1
same,"CTC-grade 1 creatinine: courses causing toxicity, all full-dose courses",[1],5
same,CTC-grade 1 creatinine: patients developing toxicity in first course,[1],1
same,"CTC-grade 2 ALP: courses causing toxicity, all full-dose courses",[1],1
same,CTC-grade 2 ALP: patients developing toxicity in first course,[1],0
same,"CTC-grade 2 ALT: courses causing toxicity, all full-dose courses",[1],1
same,CTC-grade 2 ALT: patients developing toxicity in first course,[1],0
same,"CTC-grade 2 AST: courses causing toxicity, all full-dose courses",[1],3
same,CTC-grade 2 AST: patients developing toxicity in first course,[1],0
same,"CTC-grade 2 GGT: courses causing toxicity, all full-dose courses",[1],2
same,CTC-grade 2 GGT: patients developing toxicity in first course,[1],1
same,"CTC-grade 2 bilirubin: courses causing toxicity, all full-dose courses",[1],6
same,CTC-grade 2 bilirubin: patients developing toxicity in first course,[1],2
same,"CTC-grade 2 creatinine: courses causing toxicity, all full-dose courses",[1],3
same,CTC-grade 2 creatinine: patients developing toxicity in first course,[1],2
same,"CTC-grade 3 ALT: courses causing toxicity, all full-dose courses",[1],6
same,CTC-grade 3 ALT: patients developing toxicity in first course,[1],2
same,"CTC-grade 3 AST: courses causing toxicity, all full-dose courses",[1],4
same,CTC-grade 3 AST: patients developing toxicity in first course,[1],3
same,"CTC-grade 3 GGT: courses causing toxicity, all full-dose courses",[1],2
same,CTC-grade 3 GGT: patients developing toxicity in first course,[1],1
same,"CTC-grade 3 bilirubin: courses causing toxicity, all full-dose courses",[1],1
same,CTC-grade 3 bilirubin: patients developing toxicity in first course,[1],0
same,"CTC-grade 4 ALT: courses causing toxicity, all full-dose courses",[1],1
same,CTC-grade 4 ALT: patients developing toxicity in first course,[1],1
same,number of patients with dose-limiting ALT elevation (grade 3 persisting > 7 days),20 mg m-2,one
same,number of patients with reversible thrombocytopenia (grade 2),20 mg m-2,one
same,"CTC-grade 1 ALP: courses causing toxicity, all full-dose courses",[2],2
same,CTC-grade 1 ALP: patients developing toxicity in first course,[2],2
same,"CTC-grade 1 ALT: courses causing toxicity, all full-dose courses",[2],0
same,CTC-grade 1 ALT: patients developing toxicity in first course,[2],0
same,"CTC-grade 1 AST: courses causing toxicity, all full-dose courses",[2],0
same,CTC-grade 1 AST: patients developing toxicity in first course,[2],0
same,"CTC-grade 1 GGT: courses causing toxicity, all full-dose courses",[2],2
same,CTC-grade 1 GGT: patients developing toxicity in first course,[2],1
same,"CTC-grade 1 creatinine: courses causing toxicity, all full-dose courses",[2],1
same,CTC-grade 1 creatinine: patients developing toxicity in first course,[2],1
same,"CTC-grade 2 ALT: courses causing toxicity, all full-dose courses",[2],2
same,CTC-grade 2 ALT: patients developing toxicity in first course,[2],1
same,"CTC-grade 2 AST: courses causing toxicity, all full-dose courses",[2],1
same,CTC-grade 2 AST: patients developing toxicity in first course,[2],0
same,"CTC-grade 2 GGT: courses causing toxicity, all full-dose courses",[2],0
same,CTC-grade 2 GGT: patients developing toxicity in first course,[2],0
same,"CTC-grade 2 creatinine: courses causing toxicity, all full-dose courses",[2],2
same,CTC-grade 2 creatinine: patients developing toxicity in first course,[2],1
same,"CTC-grade 3 ALT: courses causing toxicity, all full-dose courses",[2],2
same,CTC-grade 3 ALT: patients developing toxicity in first course,[2],1
same,"CTC-grade 3 AST: courses causing toxicity, all full-dose courses",[2],2
same,CTC-grade 3 AST: patients developing toxicity in first course,[2],1
same,"CTC-grade 3 GGT: courses causing toxicity, all full-dose courses",[2],2
same,CTC-grade 3 GGT: patients developing toxicity in first course,[2],1
same,number of patients with nausea/vomiting (grade 1-2) during course 1,20 patients,11
same,time to resolution of ALT and AST elevations after drug administration,all patients,≤ 3 weeks
same,number of patients with microscopic haematuria (grade 1),doses 6.6 mg m-2 (and above),seven
same,number of patients with transient proteinuria grade 1,doses 10 mg m-2 (and above),seven
same,number of patients with transient proteinuria grade 2,doses 10 mg m-2 (and above),one
same,number of patients with mild fatigue (grade 1-2),during drug administration and the week thereafter,Eight
same,maximum tolerated dose (MTD),escalation stopped at 20 mg m-2,has not been reached
same,maximum CTC grade of elevated liver transaminases,"human, blood, intravenous",4
same,leuco- or neutropenia,"human, in vivo",No leuco- or neutropenia
same,number of patients with fever > 38C (grade 2),"human, in vivo",six
same,number of patients with fever > 39C,"human, in vivo",one
same,number of patients with grade 1-2 anaemia,"human, in vivo",Fourteen
same,number of patients with grade 2 LDH increases,"human, in vivo",three
same,number of patients with grade 2 hyponatraemia,"human, in vivo",one
same,number of patients with grade 2 oedema,"human, in vivo",one
same,number of patients with hyperglycaemia grade 1-2 and/or hypoglycaemia grade 1,"human, in vivo",seven
same,number of patients with reversible increases of bilirubin,"human, in vivo",four
same,number of courses with fever > 38C (grade 2),"human, in vivo, intravenous",11
same,number of patients with occasional increase of body temperature,"human, in vivo, intravenous",17
same,time to resolution of renal toxicities after last dose of each course,"human, in vivo, intravenous",1-2 weeks
same,number of patients with increase of body temperature during course 1,"human, in vivo, intravenous, 1 course (days 1-5, 4-week interval)",14
same,maximum CTC grade of elevated serum creatinine,"human, serum, intravenous",2
same,day of ALT peak per course,median,2.5 days
same,day of serum creatinine peak,median,3 days
same,number of courses with nausea/vomiting (grade 1-2),of the 42 courses at full dose,33
same,maximum transient proteinuria,[3],3.3 g 24 h-1
same,serum albumin (hypoalbuminaemia),[3],28 g/L
same,median duration of grade 3 ALT,range 1-9 days,3.5 days
same,"PT, fibrinogen, anti-thrombin III and cholinesterase levels","six patients (13 courses) at 10-20 mg m-2, days 0 and 5",not affected
